Results taken from US6737383B1, “Herbicidal oxadiazolidines” (priority 1999, dated 2004).

Assays:
cocklebur = experiment: Test B pre/postemergence cocklebur; format: in vivo, Xanthium strumarium
Procedure, shortened: (§1)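 Herbicidal effect was estimated by eye on a ten-point control scale after plants spent twelve to sixteen days in a greenhouse following soil or foliar treatment. Foliar sprays targeted plants at one to four leaves; all doses were formulated in a non-phytotoxic solvent with surfactant.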

velvetleaf = experiment: Test B pre/postemergence velvetleaf; format: in vivo, Abutilon theophrasti; conditions: for Plant response rating, Velvetleaf: Rate 250 g/ha
Procedure, shortened: as §1

rape = experiment: Test B pre/postemergence rape; format: in vivo, Brassica napus
Procedure, shortened: as §1

corn = experiment: Test B pre/postemergence corn; format: in vivo, Zea mays
Procedure, shortened: as §1

morningglory = experiment: Test B pre/postemergence morningglory; format: in vivo, Ipomoea hederacea
Procedure, shortened: as §1

bamyardgrass = experiment: Test B flood test barnyardgrass; format: in vivo, Echinochloa crus-galli
Procedure, shortened: (§2)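 Read-out is a visual response score from 0 (no effect) to 10 (complete control), assigned by comparison with untreated controls. Treatment was applied at the 2-leaf stage, and plants stayed in the greenhouse for twelve to sixteen days before scoring.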

bedstraw = experiment: Test B pre/postemergence bedstraw; format: in vivo, Galium aparine
Procedure, shortened: as §1

surinam grass = experiment: Test B pre/postemergence surinam grass; format: in vivo, Brachiaria decumbens
Procedure, shortened: as §1

pigweed = experiment: Test B pre/postemergence pigweed; format: in vivo, Amaranthus retroflexus
Procedure, shortened: as §1

soybean = experiment: Test B pre/postemergence soybean; format: in vivo, Glycine max
Procedure, shortened: as §1

crabgrass = experiment: Test B pre/postemergence crabgrass; format: in vivo, Digitaria sanguinalis
Procedure, shortened: as §1

smallflower flatsedge = experiment: Test B flood test smallflower flatsedge; format: in vivo, Cyperus difformis
Procedure, shortened: as §2

rice = experiment: Test B flood test rice; format: in vivo, Oryza sativa
Procedure, shortened: as §2

sugar beet = experiment: Test B pre/postemergence sugar beet; format: in vivo, Beta vulgaris; conditions: for Plant response rating, Sugarbeets: Rate 250 g/ha
Procedure, shortened: as §1

wild oat = experiment: Test B pre/postemergence wild oat; format: in vivo, Avena fatua; conditions: for Plant response rating, Wild oats: Rate 250 g/ha
Procedure, shortened: as §1

duck salad = experiment: Test B flood test duck salad; format: in vivo, Heteranthera limosa
Procedure, shortened: as §2

[1] = Postemergence, Rate 125 g/ha, scale of 0 to 10 where 0 is no effect and 10 is complete control
[2] = Postemergence, Rate 250 g/ha, scale 0 to 10, 0 no effect, 10 complete control
[3] = Preemergence, Rate 62 g/ha, scale 0 to 10 (0 no effect, 10 complete control)
[4] = Preemergence, Rate 125 g/ha, scale 0 to 10 (0 no effect, 10 complete control)
[5] = Preemergence, Rate 250 g/ha, scale of 0 to 10 where 0 is no effect and 10 is complete control
[6] = Preemergence, Rate 500 g/ha, scale 0 to 10 (0 no effect, 10 complete control)
[7] = Rate 62 g/ha, Postemergence, scale of 0 to 10 where 0 is no effect and 10 is complete control
[8] = Rate 500 g/ha, Postemergence, scale 0 to 10, 0 no effect, 10 complete control
[9] = Preemergence, Rate 125 g/ha, 0 is no effect, 10 is complete control
[10] = Preemergence, scale of 0 to 10 where 0 is no effect and 10 is complete control
[11] = Postemergence, scale 0 to 10, 0 is no effect, 10 is complete control
[12] = Postemergence, Rate 62 g/ha, scale 0 to 10, 0 is no effect, 10 is complete control
[13] = Rate 500 g/ha, listed under Postemergence (flood test species), scale 0 to 10, 0 no effect, 10 complete control
[14] = flood test, listed under Postemergence, Rate 250 g/ha, scale 0 to 10, 0 no effect, 10 complete control
[15] = Rate 125 g/ha, Postemergence, scale 0 to 10, 0 no effect, 10 complete control
[16] = Rate 250 g/ha, Postemergence, scale 0 to 10, 0 is no effect, 10 is complete control
[17] = Postemergence (flood test species), Rate 125 g/ha, scale of 0 to 10 where 0 is no effect and 10 is complete control
[18] = Rate 62 g/ha, Postemergence section, flood test species, scale of 0 to 10 where 0 is no effect and 10 is complete control
[19] = Rate 250 g/ha, Postemergence (flood test), scale 0 to 10, 0 is no effect, 10 is complete control

## CC(C)N(C(=O)n1oc(=O)n(C2CCCCC2)c1=O)c1ccccc1 [Compound 112]
cocklebur; [1]
  Cocklebur plant response rating: 1
cocklebur; [2]
  Cocklebur plant response rating: 2
cocklebur; [3]
  Cocklebur plant response rating: 0
cocklebur; [4]
  Plant response rating, Cocklebur: 0
cocklebur; [5]
  Plant response rating, Cocklebur: 0
cocklebur; [6]
  Cocklebur plant response rating: 0
cocklebur; [7]
  Cocklebur plant response rating: 0
cocklebur; [8]
  Cocklebur plant response rating: 2
velvetleaf; [1]
  Velvetleaf plant response rating: 0
velvetleaf; [3]
  Velvetleaf plant response rating: 0
velvetleaf; [9]
  Velvetleaf plant response rating (0 to 10 scale): 2
velvetleaf; [10]
  Plant response rating, Velvetleaf: 4
velvetleaf; [6]
  Velvetleaf plant response rating: 5
velvetleaf; [7]
  Velvetleaf plant response rating: 0
velvetleaf; [11]
  Plant response rating, Velvetleaf: 1
velvetleaf; [8]
  Velvetleaf plant response rating: 1
rape; [1]
  Rape plant response rating: 2
rape; [2]
  Rape plant response rating: 3
rape; [3]
  Rape plant response rating: 0
rape; [4]
  Plant response rating, Rape: 0
rape; [5]
  Plant response rating, Rape: 0
rape; [6]
  Rape plant response rating: 5
rape; [7]
  Rape plant response rating: 2
rape; [8]
  Rape plant response rating: 4
corn; [1]
  Corn plant response rating: 0
corn; [2]
  Corn plant response rating: 0
corn; [3]
  Corn plant response rating: 0
corn; [4]
  Plant response rating, Corn: 0
corn; [5]
  Plant response rating, Corn: 0
corn; [6]
  Corn plant response rating: 2
corn; [7]
  Corn plant response rating: 0
corn; [8]
  Corn plant response rating: 0
morningglory; [1]
  Morningglory plant response rating: 10
morningglory; [2]
  Morningglory plant response rating: 10
morningglory; [3]
  Morningglory plant response rating: 0
morningglory; [4]
  Plant response rating, Morningglory: 2
morningglory; [5]
  Plant response rating, Morningglory: 2
morningglory; [6]
  Morningglory plant response rating: 2
morningglory; [7]
  Morningglory plant response rating: 8
morningglory; [8]
  Morningglory plant response rating: 10
bamyardgrass; [12]
  Barnyardgrass plant response rating: 0
bamyardgrass; Rate 125 g/ha, Postemergence section (flood test species), scale 0 to 10, 0 no effect, 10 complete control
  Barnyardgrass plant response rating: 0
bamyardgrass; [13]
  Barnyardgrass plant response rating: 0
bamyardgrass; [14]
  Barnyardgrass plant response rating: 0
bedstraw; [12]
  Bedstraw plant response rating: 0
bedstraw; [2]
  Bedstraw plant response rating: 7
bedstraw; [3]
  Bedstraw plant response rating: 0
bedstraw; [4]
  Plant response rating, Bedstraw: 0
bedstraw; [5]
  Plant response rating, Bedstraw: 0
bedstraw; [6]
  Bedstraw plant response rating: 0
bedstraw; [15]
  Bedstraw plant response rating: 0
Surinam grass; [12]
  B. signalgrass plant response rating: 0
Surinam grass; [2]
  B. signalgrass plant response rating: 0
Surinam grass; [3]
  B. signalgrass plant response rating: 0
Surinam grass; [4]
  Plant response rating, B. signalgrass: 0
Surinam grass; [5]
  Plant response rating, B. signalgrass: 3
Surinam grass; [6]
  B. signalgrass plant response rating: 5
Surinam grass; [15]
  B. signalgrass plant response rating: 0
Surinam grass; Rate 500 g/ha, Postemergence, scale of 0 to 10 where 0 is no effect and 10 is complete control
  B. signalgrass plant response rating: 4
pigweed; [1]
  Redroot pigweed plant response rating: 3
pigweed; [3]
  Redroot pigweed plant response rating: 0
pigweed; [4]
  Plant response rating, Redroot pigweed: 2
pigweed; [5]
  Plant response rating, Redroot pigweed: 7
pigweed; [6]
  Redroot pigweed plant response rating: 9
pigweed; [7]
  Redroot pigweed plant response rating: 2
pigweed; [16]
  Plant response rating, Redroot pigweed: 5
pigweed; [8]
  Redroot pigweed plant response rating: 5
soybean; [1]
  Soybean plant response rating: 4
soybean; [3]
  Soybean plant response rating: 0
soybean; [4]
  Plant response rating, Soybean: 0
soybean; [5]
  Plant response rating, Soybean: 0
soybean; [6]
  Soybean plant response rating: 4
soybean; [7]
  Soybean plant response rating: 4
soybean; [16]
  Plant response rating, Soybean: 4
soybean; [8]
  Soybean plant response rating: 7
crabgrass; [1]
  Crabgrass plant response rating: 4
crabgrass; [2]
  Crabgrass plant response rating: 4
crabgrass; [3]
  Crabgrass plant response rating: 5
crabgrass; [4]
  Plant response rating, Crabgrass: 6
crabgrass; [5]
  Plant response rating, Crabgrass: 10
crabgrass; [6]
  Crabgrass plant response rating: 10
crabgrass; [7]
  Crabgrass plant response rating: 0
crabgrass; [8]
  Crabgrass plant response rating: 9
Smallflower flatsedge; [17]
  S. Flatsedge plant response rating: 0
Smallflower flatsedge; [18]
  S. Flatsedge plant response rating: 0
Smallflower flatsedge; [19]
  Plant response rating, S. Flatsedge: 0
Smallflower flatsedge; [13]
  S. Flatsedge plant response rating: 0
rice; [17]
  Rice plant response rating: 0
rice; [18]
  Rice plant response rating: 0
rice; [19]
  Plant response rating, Rice: 0
rice; [13]
  Rice plant response rating: 0
Sugar beet; [1]
  Sugarbeets plant response rating: 2
Sugar beet; [3]
  Sugarbeets plant response rating: 0
Sugar beet; [9]
  Sugarbeets plant response rating (0 to 10 scale): 0
Sugar beet; [10]
  Plant response rating, Sugarbeets: 0
Sugar beet; [6]
  Sugarbeets plant response rating: 0
Sugar beet; [7]
  Sugarbeets plant response rating: 2
Sugar beet; [11]
  Plant response rating, Sugarbeets: 3
Sugar beet; [8]
  Sugarbeets plant response rating: 3
Wild oat; [1]
  Wild oats plant response rating: 0
Wild oat; [3]
  Wild oats plant response rating: 0
Wild oat; [9]
  Wild oats plant response rating (0 to 10 scale): 0
Wild oat; [10]
  Plant response rating, Wild oats: 2
Wild oat; [6]
  Wild oats plant response rating: 6
Wild oat; [7]
  Wild oats plant response rating: 0
Wild oat; [11]
  Plant response rating, Wild oats: 0
Wild oat; [8]
  Wild oats plant response rating: 1
Duck salad; [17]
  Ducksalad plant response rating: 0
Duck salad; [18]
  Ducksalad plant response rating: 0
Duck salad; [13]
  Ducksalad plant response rating: 0
Duck salad; [14]
  Ducksalad plant response rating: 0
